Experiments:
Experiment in all cases: c-ponatinib pulldown LC-MS/MS
Assay type in all cases: binding
YWHAH = molecular target: T1, YWHAH (Homo sapiens, UniProt Q04917)
T1 sequence (Q04917 1-246): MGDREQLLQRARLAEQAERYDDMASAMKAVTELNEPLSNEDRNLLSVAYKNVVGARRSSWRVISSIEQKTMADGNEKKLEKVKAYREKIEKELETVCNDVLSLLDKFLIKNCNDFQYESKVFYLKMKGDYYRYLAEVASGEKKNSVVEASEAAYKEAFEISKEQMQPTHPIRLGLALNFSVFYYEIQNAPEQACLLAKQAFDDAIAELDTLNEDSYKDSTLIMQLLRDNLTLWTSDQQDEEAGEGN
Procedure: (§1) Drug-affinity matrices were prepared as described previously.[51] In brief, 25 nmol of c-ponatinib were immobilized on 50 μl NHS-activated Sepharose 4 Fast Flow beads (GE Healthcare Bio-Sciences AB, Uppsala, Sweden). 10 mg whole cell lysate was used as protein input per replicate. Affinity chromatography and elution were performed in duplicate. After elution, the enriched proteins were reduced with dithiothreitol (DTT) and cysteine residues were alkylated by incubation with iodoacetamide. The samples were digested with modified porcine trypsin (Promega). Five percent of the digested eluates were purified and concentrated by C18 reversed-phase material. Subsequently, samples were analyzed in duplicates by gel-free one-dimensional LCMS.
(§2) Precursor and MS/MS peaks were extracted from the RAW files and saved in the MGF format using msconvert tool (ProteoWizard Library v2.1.2708, www.proteowizard.sourceforge.net) for subsequent protein identification. An initial database search was performed with broader mass tolerance and conservative score threshold to re-calibrate the mass lists for optimal final protein identification. For the initial protein database search, Mascot (www.matrixscience.com, v2.3.02) was used. Error tolerances on the precursor and fragment ions were ±10 p.p.m. and ±0.6 Da, respectively, and the database search limited to fully-tryptic peptides with maximum one missed cleavage, carbamidomethyl cysteine and methionine oxidation set as fixed and variable modifications, respectively. The Mascot peptide ion score threshold was set to 30, and at least three peptide identifications per protein were required. Searches were performed against the human UniProtKB/SwissProt database (www.uniprot.org release 2013.01) including all protein isoforms. The initial peptide identifications were used to deduce independent linear transformations for precursor and fragment masses that would minimize the mean square deviation of measured masses from theoretical. Re-calibrated mass list files were searched against the same human protein database by a combination of Mascot and Phenyx (GeneBio SA, Geneva, Switzerland; version 2.5.14) search engines using narrower mass tolerances (±4 p.p.m. and ±0.3 Da). One missed tryptic cleavage site was allowed. Carbamidomethyl cysteine was set as a fixed modification and oxidized methionine was set as a variable modification. To validate the proteins, Mascot and Phenyx output files were processed by internally developed parsers. Proteins with ≥2 unique peptides above a score T1, or with a single peptide above a score T2 were selected as unambiguous identifications. Additional peptides for these validated proteins with score >T3 were also accepted. For Mascot searches, the following thresholds were used: T1=14, T2=40 and T3=10; Phenyx thresholds were set to 4.2, 4.75 and 3.5, respectively (P-value<10^−3). The validated proteins retrieved by the two algorithms were merged, any spectral conflicts discarded and grouped according to shared peptides. A false discovery rate of <1% for protein identifications and <0.1% for peptides (including the ones exported with lower scores) was determined by applying the same procedure against a database of reversed protein sequences. […] In addition to Mascot protein scores that were proposed as an estimate of protein abundance by the original algorithm, the modified version also included Phenyx protein scores and spectral counts. The algorithm first estimated three measure-specific P-values for each putative interaction, and, in contrast to,[69] P-value calculation utilized the quantiles of the measurements rather than the original data. The Fisher's method was used to combine the three resulting P-values into a single P-value for drug–protein interaction specificity. We have also correlated interaction P-values with the magnitude of competition effect represented by the fold reduction of spectral counts on free compound competition. […]

JAK2 = JAK2 (Homo sapiens, UniProt O60674)
Sequence of JAK2 (O60674 whole entry): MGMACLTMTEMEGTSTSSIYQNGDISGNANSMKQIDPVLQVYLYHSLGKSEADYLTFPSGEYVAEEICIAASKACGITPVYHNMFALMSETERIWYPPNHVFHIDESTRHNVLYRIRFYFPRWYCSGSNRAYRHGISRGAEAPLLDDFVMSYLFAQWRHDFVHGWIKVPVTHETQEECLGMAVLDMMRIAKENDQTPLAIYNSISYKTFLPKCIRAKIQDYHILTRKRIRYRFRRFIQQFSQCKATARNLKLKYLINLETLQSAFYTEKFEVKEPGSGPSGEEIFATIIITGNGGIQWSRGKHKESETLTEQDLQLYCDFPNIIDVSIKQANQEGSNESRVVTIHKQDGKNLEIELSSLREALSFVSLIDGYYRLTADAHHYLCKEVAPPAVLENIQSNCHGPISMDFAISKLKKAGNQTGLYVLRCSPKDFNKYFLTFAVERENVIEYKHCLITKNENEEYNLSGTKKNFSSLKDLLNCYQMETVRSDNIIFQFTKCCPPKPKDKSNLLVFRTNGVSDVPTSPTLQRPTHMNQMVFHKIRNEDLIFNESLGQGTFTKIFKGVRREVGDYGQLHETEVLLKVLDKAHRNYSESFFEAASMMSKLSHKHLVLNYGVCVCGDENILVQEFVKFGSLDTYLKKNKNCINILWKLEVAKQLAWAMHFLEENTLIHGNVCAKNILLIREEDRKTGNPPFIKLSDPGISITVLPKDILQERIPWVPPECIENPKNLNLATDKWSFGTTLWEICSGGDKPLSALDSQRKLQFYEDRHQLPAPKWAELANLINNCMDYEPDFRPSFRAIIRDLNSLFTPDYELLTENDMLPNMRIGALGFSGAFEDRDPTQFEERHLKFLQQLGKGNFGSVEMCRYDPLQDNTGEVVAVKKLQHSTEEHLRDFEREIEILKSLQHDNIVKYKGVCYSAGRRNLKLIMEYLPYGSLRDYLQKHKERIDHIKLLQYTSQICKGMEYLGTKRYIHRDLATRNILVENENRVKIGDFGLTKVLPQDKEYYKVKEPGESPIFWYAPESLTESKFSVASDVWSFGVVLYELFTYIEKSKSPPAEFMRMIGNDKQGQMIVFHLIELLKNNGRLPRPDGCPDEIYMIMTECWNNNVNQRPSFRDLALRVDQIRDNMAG
Procedure: as §1, §2

MAP3K1 = MAP3K1 (Homo sapiens, UniProt Q13233)
Sequence of MAP3K1 (Q13233 whole entry): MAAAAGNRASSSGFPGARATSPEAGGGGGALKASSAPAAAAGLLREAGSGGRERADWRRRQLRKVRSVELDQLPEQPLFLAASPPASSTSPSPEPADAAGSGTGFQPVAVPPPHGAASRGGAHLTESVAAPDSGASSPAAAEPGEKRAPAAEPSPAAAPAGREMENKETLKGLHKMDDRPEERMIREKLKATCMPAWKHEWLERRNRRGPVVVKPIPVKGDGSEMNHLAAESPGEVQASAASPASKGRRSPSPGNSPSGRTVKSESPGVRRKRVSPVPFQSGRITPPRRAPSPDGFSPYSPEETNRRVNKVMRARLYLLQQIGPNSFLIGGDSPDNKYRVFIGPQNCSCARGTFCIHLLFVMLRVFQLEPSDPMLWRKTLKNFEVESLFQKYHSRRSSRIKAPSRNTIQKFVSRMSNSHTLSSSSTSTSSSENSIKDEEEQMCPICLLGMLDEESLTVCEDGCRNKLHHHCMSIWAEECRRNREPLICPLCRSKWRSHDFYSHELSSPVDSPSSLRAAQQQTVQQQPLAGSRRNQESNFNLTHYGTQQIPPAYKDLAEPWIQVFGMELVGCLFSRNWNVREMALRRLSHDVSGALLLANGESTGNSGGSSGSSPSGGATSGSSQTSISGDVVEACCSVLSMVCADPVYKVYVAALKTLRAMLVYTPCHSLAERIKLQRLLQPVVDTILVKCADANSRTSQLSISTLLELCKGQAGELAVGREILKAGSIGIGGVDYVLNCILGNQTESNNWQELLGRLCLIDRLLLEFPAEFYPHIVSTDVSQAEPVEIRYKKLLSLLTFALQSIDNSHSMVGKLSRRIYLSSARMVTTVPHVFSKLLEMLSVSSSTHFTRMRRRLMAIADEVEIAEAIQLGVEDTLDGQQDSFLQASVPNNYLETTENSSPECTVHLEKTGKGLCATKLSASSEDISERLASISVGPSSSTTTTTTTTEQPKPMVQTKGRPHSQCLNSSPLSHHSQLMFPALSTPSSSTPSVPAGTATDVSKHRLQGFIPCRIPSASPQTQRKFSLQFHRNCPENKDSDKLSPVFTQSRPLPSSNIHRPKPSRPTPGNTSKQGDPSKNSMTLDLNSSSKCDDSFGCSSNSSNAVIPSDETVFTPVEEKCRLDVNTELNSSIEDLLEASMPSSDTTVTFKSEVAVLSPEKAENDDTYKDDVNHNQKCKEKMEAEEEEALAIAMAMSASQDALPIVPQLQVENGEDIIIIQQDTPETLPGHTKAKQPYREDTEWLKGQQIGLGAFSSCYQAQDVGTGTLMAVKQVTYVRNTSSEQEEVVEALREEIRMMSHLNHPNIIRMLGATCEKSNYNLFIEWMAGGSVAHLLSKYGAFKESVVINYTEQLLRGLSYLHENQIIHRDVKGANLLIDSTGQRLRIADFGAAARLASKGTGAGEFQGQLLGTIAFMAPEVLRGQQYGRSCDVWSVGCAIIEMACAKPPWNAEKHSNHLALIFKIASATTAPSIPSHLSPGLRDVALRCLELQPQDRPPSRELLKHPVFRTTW
Procedure: as §1, §2

TAOK3 = molecular target: T2, TAOK3 (Homo sapiens, UniProt Q9H2K8)
T2 sequence (Q9H2K8 1-898): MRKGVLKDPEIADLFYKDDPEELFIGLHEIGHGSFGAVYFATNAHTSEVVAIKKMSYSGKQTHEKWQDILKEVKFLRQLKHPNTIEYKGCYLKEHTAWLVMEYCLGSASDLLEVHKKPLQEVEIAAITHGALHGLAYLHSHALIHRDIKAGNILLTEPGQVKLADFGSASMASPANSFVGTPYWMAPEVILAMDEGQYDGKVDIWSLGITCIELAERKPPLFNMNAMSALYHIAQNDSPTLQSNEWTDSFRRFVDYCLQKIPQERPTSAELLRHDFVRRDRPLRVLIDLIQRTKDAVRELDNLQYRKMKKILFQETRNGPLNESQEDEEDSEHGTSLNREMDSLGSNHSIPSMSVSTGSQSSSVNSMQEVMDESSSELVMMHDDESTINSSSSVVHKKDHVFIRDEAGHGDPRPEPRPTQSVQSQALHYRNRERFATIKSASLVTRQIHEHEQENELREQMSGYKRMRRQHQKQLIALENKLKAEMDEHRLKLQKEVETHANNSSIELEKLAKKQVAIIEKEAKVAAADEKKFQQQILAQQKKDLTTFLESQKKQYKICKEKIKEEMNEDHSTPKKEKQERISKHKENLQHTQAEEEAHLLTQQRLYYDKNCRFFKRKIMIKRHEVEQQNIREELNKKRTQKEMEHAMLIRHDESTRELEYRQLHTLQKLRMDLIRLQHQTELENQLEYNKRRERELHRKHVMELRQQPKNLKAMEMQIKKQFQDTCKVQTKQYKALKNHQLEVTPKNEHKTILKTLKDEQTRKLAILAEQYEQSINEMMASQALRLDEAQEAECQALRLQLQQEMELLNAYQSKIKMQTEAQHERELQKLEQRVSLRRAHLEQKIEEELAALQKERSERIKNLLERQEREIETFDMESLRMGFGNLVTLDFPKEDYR
Procedure: as §1, §2

MAPK14 = MAPK14 (Homo sapiens, UniProt Q16539)
Sequence of MAPK14 (Q16539 whole entry): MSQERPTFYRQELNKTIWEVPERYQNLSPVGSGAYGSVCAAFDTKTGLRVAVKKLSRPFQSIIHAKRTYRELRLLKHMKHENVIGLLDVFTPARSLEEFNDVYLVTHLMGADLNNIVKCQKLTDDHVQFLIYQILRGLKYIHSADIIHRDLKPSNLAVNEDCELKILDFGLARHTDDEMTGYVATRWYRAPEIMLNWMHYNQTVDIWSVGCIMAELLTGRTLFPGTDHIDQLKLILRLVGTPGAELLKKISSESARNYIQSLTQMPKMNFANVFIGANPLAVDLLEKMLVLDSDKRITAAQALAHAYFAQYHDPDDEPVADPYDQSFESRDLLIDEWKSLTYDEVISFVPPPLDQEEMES
Procedure: as §1, §2

MAPKAPK2 = MAPKAPK2 (Homo sapiens, UniProt P49137)
Sequence of MAPKAPK2 (P49137 whole entry): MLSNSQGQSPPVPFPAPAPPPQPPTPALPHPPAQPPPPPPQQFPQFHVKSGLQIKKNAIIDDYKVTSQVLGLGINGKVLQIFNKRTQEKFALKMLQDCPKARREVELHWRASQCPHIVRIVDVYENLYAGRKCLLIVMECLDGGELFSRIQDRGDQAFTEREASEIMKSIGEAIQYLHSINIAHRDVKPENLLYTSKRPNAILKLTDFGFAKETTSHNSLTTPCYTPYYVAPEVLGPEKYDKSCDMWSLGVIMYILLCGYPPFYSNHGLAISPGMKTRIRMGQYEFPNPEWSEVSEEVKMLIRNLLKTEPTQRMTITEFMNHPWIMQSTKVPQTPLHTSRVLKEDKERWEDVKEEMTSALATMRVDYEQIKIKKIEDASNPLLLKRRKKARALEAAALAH
Procedure: as §1, §2

Av. SC comp. (YWHAH; + free ponatinib): 0.25
Total SC comp. (YWHAH; + free ponatinib): 1
Av. SC (YWHAH; no competitor): 6
Total SC (YWHAH; no competitor): 24
Av. SC comp. (JAK2; + free ponatinib): 0
Total SC comp. (JAK2; + free ponatinib): 0
Av. SC (JAK2; no competitor): 2.25
Total SC (JAK2; no competitor): 9
Av. SC comp. (MAP3K1; + free ponatinib): 0
Total SC comp. (MAP3K1; + free ponatinib): 0
Av. SC (MAP3K1; no competitor): 9
Total SC (MAP3K1; no competitor): 36
Av. SC comp. (TAOK3; + free ponatinib): 2
Total SC comp. (TAOK3; + free ponatinib): 8
Av. SC (TAOK3; no competitor): 13
Total SC (TAOK3; no competitor): 52
Av. SC comp. (MAPK14; + free ponatinib): 7.25
Total SC comp. (MAPK14; + free ponatinib): 29
Av. SC (MAPK14; no competitor): 79.25
Total SC (MAPK14; no competitor): 317
Av. SC comp. (MAPKAPK2; + free ponatinib): 0
Total SC comp. (MAPKAPK2; + free ponatinib): 0
Av. SC (MAPKAPK2; no competitor): 23.5
Total SC (MAPKAPK2; no competitor): 94
SMILES: Cc1ccc(C(=O)Nc2ccc(CN3CCN(CCCN)CC3)c(C(F)(F)F)c2)cc1C#Cc1cnc2cccnn12 [c-ponatinib]

— publication PMC4669708 (Cell Death & Disease, 2015)
